In PMC7801115, “Preclinical in vitro screening of newly synthesised amidino substituted benzimidazoles and benzothiazoles” (Journal of Enzyme Inhibition and Medicinal Chemistry, 2021):
Structures can show the parent of a compound that is named as a salt.

Key:
A549 [1] = assay: MTS cell viability (cytotoxicity) assay, 2D cell culture; type: cell-based; details: Homo sapiens, A549, 2D cell culture, 72 h, ±SD, N = 2, read-out: IC50 antitumor activity A549 2D
Method: (§1) Compounds are diluted 1:3. 500 nL (for 2 D cell culture) or 400 nL (for 3 D cell culture) of compound were transferred from mother plate to test plate by using Mosquito (TTP labtech). DMSO percentage in test concentrations was 0.5 − 1.0%. Starting concentration of the test compounds and standard compound doxorubicin was 50 µM (2 D cell culture) or 100 µM (3 D cell culture).
(§2) Cells were grown in 96 well cell star polystyrene plates. 10,000 cells/well were seeded in wells 4 h prior the treatment with different compounds concentrations and incubated for 72 h. A cell viability assay was performed according to the manufacturer’s instruction, using CellTiter 96 aqueous solution, MTS kit (Promega, Madison, WI, USA). After 0.5–2 h of cell incubation with MTS in 2 D cell culture, the plates were read using PE EnVision absorbance at 490 nm. […] Since we prefer homogeneous assays (mix and read procedures) and therefore MTS is more practical (one step less than MTT). MTS is more sensitive and accurate in comparison with MTT assay.
(§3) Calculation of IC50 data, curves and QC analysis is made by using Excel tools and GraphPadPrism software (La Jolla, CA), v. […] QC criteria parameters (Z', S:B, R2, HillSlope) were checked for every IC50 curve.

HCC827 [2] = assay: as above; type: cell-based; details: Homo sapiens, read-out: IC50 antitumor activity HCC827 2D
Method: as §1, §2, §3

NCI-H358 [3] = assay: as above; type: cell-based; details: Homo sapiens, read-out: IC50 antitumor activity NCI-H358 2D
Method: as §1, §2, §3

A549 [4] = assay: Cell viability assay, 3D hanging drop cell culture (CellTiter GLO 3D); type: cell-based; details: Homo sapiens; A549, 3D hanging drop cell culture, 72 h; ±SD, N = 2; read-out: IC50 antitumor activity A549 3D
Method: as §1
(§4) Cells were grown in 96 well Perfecta 3 D hanging drop plates 5000 cell/well for 4 days until spheres were formed (and checked under the microscope). After sphere formation cells were treated with compounds followed by 72 h incubation. Cell viability assay was performed according to the manufacturer’s instruction, using CellTiter GLO 3 D for 3 D cell culture (Promega); cell incubation was 5 min on the shaker followed by 25 min incubation in the dark. Plates were read using PE EnVision luminescence.
as §3

HCC827 [5] = assay: as above; type: cell-based; details: Homo sapiens, read-out: IC50 antitumor activity HCC827 3D
Method: as §1, §4, §3

NCI-H358 [6] = assay: as above; type: cell-based; details: Homo sapiens, read-out: IC50 antitumor activity NCI-H358 3D
Method: as §1, §4, §3

A549 [7] = assay: BrdU proliferation assay, 2D cell culture; type: cell-based; details: Homo sapiens, A549, 2D cell culture, ±SD, N = 2
Method: Cells were grown in 96 well cell star polystyrene plates. 10,000 cells/well were seeded in wells 4 h prior the treatment with different compounds concentrations and incubated for 72 h. A cell viability assay was performed according to the manufacturer’s instruction, using CellTiter 96 aqueous solution, MTS kit (Promega, Madison, WI, USA). After 0.5–2 h of cell incubation with MTS in 2 D cell culture, the plates were read using PE EnVision absorbance at 490 nm. The results for each of tested compounds are reported as growth percentages from two independent concentrations curves compared with the untreated control cells after drug exposure. Since we prefer homogeneous assays (mix and read procedures) and therefore MTS is more practical (one step less than MTT). MTS is more sensitive and accurate in comparison with MTT assay.
(§5) Proliferation assay was performed using Cell Proliferation ELISA, BrdU (Sigma, St. Louis, MO, USA). Briefly, 48 h hours after compound addition, 10 µM of BrdU was added to each well and incubated for following 24 h. After incubation, single cell suspension was made for 3 D cell culture in the new 96 well plate. Plates were centrifuged and supernatants were removed from each plate (for 2 D and 3 D cell culture) followed by 60 min incubation at 60° C. The rest of the proliferation assay was performed according to the manufacturer instructions.
(§6) Calculation of IC50 data, curves and QC analysis is made by using Excel tools and GraphPadPrism software (La Jolla, CA), v. 5.03. In brief, individual concentration–effect curves are generated by plotting the logarithm of the tested concentration of tested compounds (X) versus corresponding percent inhibition values (Y) using least squares (ordinary) fit. […] QC criteria parameters (Z', S:B, R2, HillSlope) were checked for every IC50 curve.

A549 [8] = assay: BrdU proliferation assay, 3D cell culture; type: cell-based; details: Homo sapiens, A549, 3D cell culture, ±SD, N = 2
Method: as §4, with “luminescence. The results for each of tested compounds are reported as growth percentages from two independent concentrations curves compared with the untreated control cells after drug exposure.” for “luminescence.”
as §5, §6

NCI-H358 [9] = assay: BrdU proliferation assay, 3D cell culture; type: cell-based; details: Homo sapiens, NCI-H358, 3D cell culture, ±SD, N = 2
Method: as §4, with “luminescence. The results for each of tested compounds are reported as growth percentages from two independent concentrations curves compared with the untreated control cells after drug exposure.” for “luminescence.”
as §5, §6

HCC827 [10] = assay: BrdU proliferation assay, 2D cell culture; type: cell-based; details: Homo sapiens, HCC827, 2D cell culture, ±SD, N = 2
Method: as §2, §5, §3

NCI-H358 [11] = assay: BrdU proliferation assay, 2D cell culture; type: cell-based; details: Homo sapiens, NCI-H358, 2D cell culture, ±SD, N = 2
Method: as §2, §5, §3

HCC827 [12] = assay: BrdU proliferation assay, 3D cell culture; type: cell-based; details: Homo sapiens, HCC827, 3D cell culture, ±SD, N = 2
Method: as §4, §5, §3

[13] = HCC827, 2D cell culture, 72 h, MTS, ±SD, N = 2
[14] = NCI-H358, 2D cell culture, 72 h, MTS, ±SD, N = 2
[15] = HCC827, 3D hanging drop cell culture, 72 h, ±SD, N = 2
[16] = NCI-H358, 3D hanging drop cell culture, 72 h, ±SD, N = 2

| SMILES | melting point [°C] | IC50 (A549 [4]) [nM] | IC50 (HCC827 [5]; [15]) [nM] | IC50 (NCI-H358 [6]; [16]) [nM] | IC50 (A549 [7]) [nM] | IC50 (A549 [8]) [nM] | IC50 (NCI-H358 [9]) [nM] | IC50 (HCC827 [10]) [nM] | IC50 (NCI-H358 [11]) [nM] | IC50 (HCC827 [12]) [nM] | IC50 (A549 [1]) [nM] | IC50 (HCC827 [2]; [13]) [nM] | IC50 (NCI-H358 [3]; [14]) [nM] | IC50 (HCC827 [2]; HCC827, 72 h) [nM] | IC50 (NCI-H358 [3]; NCI-H358, 72 h) [nM] | IC50 (HCC827 [5]; HCC827, 72 h) [nM] | IC50 (NCI-H358 [6]; NCI-H358, 72 h) [nM] |
| --- | --- | --- | --- | --- | --- | --- | --- | --- | --- | --- | --- | --- | --- | --- | --- | --- | --- |
| Cl.c1ccc2c(c1)cc(-c1nc3ccc(C4=NCCCN4)cc3s1)c1ccccc12 [Compound 5i, 2-(Phenanthrene-9-yl)-6–(3,4,5,6-tetrahydropyrimidin-1-ium-2-yl)benzothiazole chloride] | 196 to 200 | > 100000 | – | – | > 50000 | > 100000 | > 100000 | > 50000 | > 50000 | > 100000 | > 50000 | – | – | > 50000 | > 50000 | > 100000 | > 100000 |
| COc1cccc2c1C(=O)c1c(O)c3c(c(O)c1C2=O)C[C@@](O)(C(=O)CO)C[C@@H]3O[C@H]1C[C@H](N)[C@H](O)[C@H](C)O1 [Doxorubicin, reference compound] | – | 5000 ± 260 | 780 ± 80 | 250 ± 30 | 60 ± 10 | 390 ± 20 | 340 ± 360 | 20 | 40 | 1030 ± 710 | 2000 ± 230 | 390 ± 50 | 110 ± 10 | – | – | – | – |
| CN[C@@H]1C[C@H]2O[C@@](C)([C@@H]1OC)n1c3ccccc3c3c4c(c5c6ccccc6n2c5c31)C(=O)NC4 [Staurosporine, reference compound] | – | – | – | – | – | – | – | 60 ± 10 | – | 40 ± 10 | – | 150 ± 10 | – | – | – | – | – |
| COc1cc2c(Nc3ccc(Br)cc3F)ncnc2cc1OCC1CCN(C)CC1 [Vandetanib, reference compound] | – | > 50000 | 2000 ± 110 | 300 ± 20 | > 25000 | 1250 ± 2820 | 1910 ± 90 | 2820 ± 1980 | 1000 ± 280 | 870 ± 1150 | > 25000 | 810 ± 50 | 3000 ± 850 | – | – | – | – |

Continued, in another order:

| melting point [°C] | IC50 (A549 [4]) [nM] | IC50 (HCC827 [5]; [15]) [nM] | IC50 (NCI-H358 [6]; [16]) [nM] | IC50 (A549 [7]) [nM] | IC50 (A549 [8]) [nM] | IC50 (NCI-H358 [9]) [nM] | IC50 (HCC827 [10]) [nM] | IC50 (NCI-H358 [11]) [nM] | IC50 (HCC827 [12]) [nM] | SMILES | IC50 (A549 [1]) [nM] | IC50 (HCC827 [2]; [13]) [nM] | IC50 (NCI-H358 [3]; [14]) [nM] | IC50 (HCC827 [2]; HCC827, 72 h) [nM] | IC50 (NCI-H358 [3]; NCI-H358, 72 h) [nM] | IC50 (HCC827 [5]; HCC827, 72 h) [nM] | IC50 (NCI-H358 [6]; NCI-H358, 72 h) [nM] |
| --- | --- | --- | --- | --- | --- | --- | --- | --- | --- | --- | --- | --- | --- | --- | --- | --- | --- |
| > 300 | – | – | – | – | – | – | – | – | – | c1ccc2c(-c3nc4ccc(C5=NCCCN5)cc4[nH]3)c[nH]c2c1 (as salt: chloride) [Compound 6e, 2-(1H-Indol-3-yl)-5(6)–(3,4,5,6-tetrahydropyrimidin-1-ium-2-yl)benzimidazole chloride] | – | – | – | – | – | – | – |
| 272 to 275 | > 100000 | > 100000 | > 100000 | > 50000 | > 100000 | > 100000 | > 50000 | > 50000 | > 100000 | Cl.c1ccc(-c2nc3ccc(C4=NCCCN4)cc3s2)cc1 [Compound 5a, 2-Phenyl-6–(3,4,5,6-tetrahydropyrimidin-1-ium-2-yl)benzothiazole chloride] | > 50000 | > 50000 | > 50000 | – | – | – | – |
| > 300 | > 100000 | > 100000 | > 100000 | > 50000 | > 100000 | > 100000 | > 50000 | > 50000 | > 100000 | Cl.c1ccc2c(-c3nc4ccc(C5=NCCCN5)cc4s3)c[nH]c2c1 [Compound 5f, 2-(1H-Indol-3-yl)-6–(3,4,5,6-tetrahydropyrimidin-1-ium-2-yl)benzothiazole chloride] | > 50000 | > 50000 | > 50000 | – | – | – | – |
